Data on 64 molecules can be found in patent US20130131075A1, “NEW COMPOUNDS” (Boehringer Ingelheim International GmbH, priority 2009, published 2013).

The structures appear in SMILES notation.

This assay addresses T1, cynomolgus BK1-receptor (Macaca fascicularis, UniProt Q3BCU0).
T1 construct: expressed in transfected cells; host or cells: CHO cells (homogenate)
T1 sequence (Q3BCU0 1-352): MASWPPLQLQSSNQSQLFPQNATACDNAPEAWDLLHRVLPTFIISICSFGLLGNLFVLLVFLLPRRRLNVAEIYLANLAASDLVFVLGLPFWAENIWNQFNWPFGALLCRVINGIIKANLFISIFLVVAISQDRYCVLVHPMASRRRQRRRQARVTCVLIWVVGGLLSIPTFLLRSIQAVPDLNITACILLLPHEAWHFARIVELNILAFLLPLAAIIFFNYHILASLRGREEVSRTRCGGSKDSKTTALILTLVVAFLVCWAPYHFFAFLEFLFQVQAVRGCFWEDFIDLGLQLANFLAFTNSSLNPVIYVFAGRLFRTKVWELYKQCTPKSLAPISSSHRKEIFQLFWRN
Briefly: cynoBK1-receptor binding assay. The settings on record: CHO cells expressing cynomolgus BK1-receptor, radioligand kallidine (DesArg10,Leu9). The procedure, abridged: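 Ki derived by non-linear fitting of concentration-binding curves. Test compound competed against 0.5 to 5.0 nM tritiated kallidine (DesArg10,Leu9) on cynomolgus BK1-CHO cell homogenate (50 to 250 μg protein/assay) for 60-180 minutes at ambient temperature, then filtered. 1.0 μM kallidine (DesArg10) set non-specific binding.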

As a reminder, the Ki is the dissociation constant of the complex between target and ligand, obtained from inhibition or displacement. Read a high Ki as weaker binding. `Cc1ncc(C(=O)N[C@@]2(C(=O)NCc3ncc(Nc4ccc(Cl)cc4C(F)(F)F)cc3Cl)CCOC2)cn1` [(282)] showed an inhibition constant (Ki) of 7.9 nM. Then `Cc1ncc(C(=O)NC2(C(=O)NCc3ccc(Nc4ccc(F)cc4C(F)(F)F)cc3F)CC2)cn1` [(283)], with 1.3 nM; and `Nc1cncc(C(=O)N[C@@]2(C(=O)NCc3ncc(Nc4ccc(Cl)cc4C(F)(F)F)cc3Cl)CCOC2)c1` [(285)], with 27 nM.

As for `O=C(N[C@@]1(C(=O)NCc2ncc(Nc3ccc(Cl)cc3C(F)(F)F)cc2Cl)CCOC1)c1cncc(O)c1` [(286)], the Ki turned out to be 36 nM. To `O=C(N[C@@]1(C(=O)NCc2ccc(Nc3ccc(F)cc3C(F)(F)F)cc2)CCOC1)c1cncnc1` [(287)] belongs 11 nM; to `Cc1ncc(C(=O)N[C@@]2(C(=O)NCc3ccc(Nc4ccc(F)cc4C(F)(F)F)cc3)CCOC2)cn1` [(288)], 9.1 nM. Then `CNc1ncc(C(=O)N[C@@]2(C(=O)NCc3ccc(Nc4ccc(F)cc4C(F)(F)F)cc3)CCOC2)cn1` [(289)], with 21 nM; and `Nc1cncc(C(=O)N[C@@]2(C(=O)NCc3ccc(Nc4c(F)cccc4C(F)(F)F)cc3F)CCOC2)c1` [(290)], with 46 nM; and `Cc1ncc(C(=O)N[C@@]2(C(=O)NCc3ccc(Nc4c(F)cccc4C(F)(F)F)cc3F)CCOC2)cn1` [(291)], with 40 nM. Then `Cc1ncc(C(=O)N[C@@]2(C(=O)NCc3ncc(Nc4ccccc4C(F)(F)F)cc3Cl)CCOC2)cn1` [(292)], with 7.2 nM. On to `Nc1ccc(C(=O)N[C@@]2(C(=O)NCc3ncc(Nc4ccc(Cl)cc4C(F)(F)F)cc3F)CCOC2)cn1` [(293)], for which the inhibition constant Ki stood at 65 nM. Then `Cc1ncc(C(=O)NC2(C(=O)NCc3ccc(Nc4ccccc4C(F)(F)F)cc3F)CC2)cn1` [(294)], with 1.2 nM; and `N#Cc1ccccc1Nc1cnc(CNC(=O)C2(NC(=O)c3cncnc3)CC2)c(F)c1` [(295)], with 31 nM; and `N#Cc1ccccc1Nc1ccc(CNC(=O)C2(NC(=O)c3cncnc3)CC2)c(F)c1` [(296)], with 28 nM. With `Nc1ccc(C(=O)N[C@@]2(C(=O)NCc3ncc(Nc4ccc(Cl)cc4C(F)(F)F)cc3Cl)CCOC2)cn1` [(297)], the inhibitory constant (Ki) was 59 nM. Then `Cc1ncc(C(=O)NC2(C(=O)NCc3ncc(Nc4ccc(F)cc4C(F)(F)F)cc3F)CC2)cn1` [(298)], with 0.7 nM.

With `O=C(N[C@@]1(C(=O)NCc2ccc(Nc3ccc(F)cc3C(F)(F)F)cc2)CCOC1)c1cncs1` [(299)], the inhibitory constant (Ki) was found to be 222 nM. This Ki lies about 320-fold higher than the previous one.

In the case of `COc1ncc(C(=O)N[C@@]2(C(=O)NCc3ccc(Nc4ccc(F)cc4C(F)(F)F)cc3)CCOC2)cn1` [(300)], the affinity corresponds to a Ki of 45 nM. In turn, `Cc1ncc(C(=O)NC2(C(=O)NCc3ncc(Nc4ccccc4C(F)(F)F)cc3Cl)CC2)cn1` [(301)] displayed a Ki of 1.1 nM. Then `Cc1cncc(C(=O)NC2(C(=O)NCc3ccc(Nc4ccc(F)cc4C(F)(F)F)cn3)CC2)c1` [(302)], with 42 nM. To `Cc1ncc(C(=O)NC2(C(=O)NCc3ccc(Nc4ccc(F)cc4C(F)(F)F)cn3)CC2)s1` [(303)] belongs 82 nM; to `CNc1ncc(C(=O)N[C@@]2(C(=O)NCc3ccc(Nc4ccc(F)cc4C(F)(F)F)cn3)CCOC2)cn1` [(304)], 135 nM.

For the molecule `CNc1cncc(C(=O)N[C@@]2(C(=O)NCc3ccc(Nc4ccc(F)cc4C(F)(F)F)cc3)CCOC2)c1` [(305)], the Ki worked out at 76 nM.

In turn, `Cc1cc(Nc2ccc(F)cc2C(F)(F)F)cnc1CNC(=O)C1(NC(=O)c2cncnc2)CC1` [(306)] returned an inhibitory constant (Ki) of 2 nM. To `Cc1ncc(C(=O)N[C@@]2(C(=O)NCc3ccc(Nc4ccc(F)cc4C(F)(F)F)cn3)CCOC2)cn1` [(307)] belongs 54 nM; to `Cc1cncc(C(=O)N[C@@]2(C(=O)NCc3ccc(Nc4ccc(F)cc4C(F)(F)F)cc3)CCOC2)c1` [(308)], 427 nM; to `Nc1ccc(C(=O)N[C@@]2(C(=O)NCc3ccc(Nc4ccc(F)cc4C(F)(F)F)cc3)CCOC2)cn1` [(309)], 184 nM.

`CC(C)c1ncc(C(=O)N[C@@]2(C(=O)NCc3ccc(Nc4ccc(F)cc4C(F)(F)F)cc3)CCOC2)cn1` [(310)] gave an inhibition constant (Ki) of 39 nM. Against the preceding molecule, the Ki is about 4.7-fold lower.

With `CNc1cncc(C(=O)N[C@@]2(C(=O)NCc3ccc(Nc4ccc(F)cc4C(F)(F)F)cn3)CCOC2)c1` [(311)], the Ki is 349 nM. As to `Cc1ccc(C(=O)NC2(C(=O)NCc3ccc(Nc4ccc(Cl)cc4C(F)(F)F)cn3)CC2)cn1` [(312)], the affinity corresponds to a Ki of 57 nM. Against the preceding molecule, the Ki is about 6.1-fold lower.

`COc1cncc(C(=O)NC2(C(=O)NCc3ccc(Nc4ccc(Cl)cc4C(F)(F)F)cn3)CC2)c1` [(313)] yielded a Ki of 95 nM.

In turn, `COc1ncc(C(=O)N[C@@]2(C(=O)NCc3ncc(Nc4ccc(Cl)cc4C(F)(F)F)cc3F)CCOC2)cn1` [(314)] gave an inhibition constant (Ki) of 15 nM. Then `Cc1ccc(C(=O)NC2(C(=O)NCc3ccc(Nc4ccc(Br)cc4C(F)(F)F)cn3)CC2)cn1` [(315)], with 40 nM. To `COc1cncc(C(=O)NC2(C(=O)NCc3ccc(Nc4ccc(Br)cc4C(F)(F)F)cn3)CC2)c1` [(316)] belongs 57 nM.

Consider `Cc1ncc(C(=O)N[C@@]2(C(=O)NCc3ccc(Nc4ccc(Cl)cc4C(F)(F)F)cc3)CCOC2)cn1` [(317)], for which affinity was put at a Ki of 30 nM. On to `Nc1ccc(C(=O)N[C@@]2(C(=O)NCc3ccc(Nc4ccc(Cl)cc4C(F)(F)F)cc3)CCOC2)cn1` [(318)], for which the inhibition constant (Ki) amounted to 316 nM. To `CNc1cncc(C(=O)N[C@@]2(C(=O)NCc3ncc(Nc4ccc(Cl)cc4C(F)(F)F)cc3F)CCOC2)c1` [(319)] belongs 58 nM. `Nc1cncc(C(=O)N[C@@]2(C(=O)NCc3ncc(Nc4ccccc4C(F)(F)F)cc3F)CCOC2)c1` [(320)] returned a Ki of 19 nM. Compared with the last molecule, the Ki is about 3.1-fold lower.

Molecule `Nc1cncc(C(=O)N[C@@]2(C(=O)NCc3ccc(Nc4ccc(Cl)cc4C(F)(F)F)cc3)CCOC2)c1` [(321)] showed an inhibitory constant (Ki) of 57 nM. To `CNc1ncc(C(=O)N[C@@]2(C(=O)NCc3ccc(Nc4ccc(Cl)cc4C(F)(F)F)cc3)CCOC2)cn1` [(323)] belongs 69 nM; to `Cc1cc(Nc2ccc(F)cc2C(F)(F)F)cnc1CNC(=O)[C@]1(NC(=O)c2cncnc2)CCOC1` [(324)], 22 nM; to `O=C(NC1(C(=O)NCc2ccc(Nc3c(F)cc(Br)cc3Cl)cn2)CC1)c1cncnc1` [(325)], 374 nM. To `O=C(NC1(C(=O)NCc2ccc(Nc3c(F)cccc3Br)cn2)CC1)c1cncnc1` [(326)] belongs 504 nM. Then `COc1ncc(C(=O)N[C@@]2(C(=O)NCc3ccc(Nc4ccc(F)cc4C(F)(F)F)cn3)CCOC2)cn1` [(327)], with 89 nM; and `CCNc1ncc(C(=O)N[C@@]2(C(=O)NCc3ccc(Nc4ccc(F)cc4C(F)(F)F)cc3)CCOC2)cn1` [(328)], with 33 nM.

The molecule `CCNc1ccc(C(=O)NC2(C(=O)NCc3ccc(Nc4ccc(Cl)cc4C(F)(F)F)cn3)CC2)cn1` [(329)] came in with an inhibition constant (Ki) of 24 nM. Then `CCCNc1ccc(C(=O)NC2(C(=O)NCc3ccc(Nc4ccc(Cl)cc4C(F)(F)F)cn3)CC2)cn1` [(330)], with 35 nM. Then `O=C(N[C@@]1(C(=O)NCc2ncc(Nc3ccc(Cl)cc3C(F)(F)F)cc2F)CCOC1)c1cncc(O)c1` [(331)], with 66 nM. Then `O=C(N[C@@]1(C(=O)NCc2ccc(Nc3ccc(Cl)cc3C(F)(F)F)cc2)CCOC1)c1cncnc1` [(332)], with 41 nM; and `COc1ncc(C(=O)N[C@@]2(C(=O)NCc3ccc(Nc4ccc(Cl)cc4C(F)(F)F)cc3)CCOC2)cn1` [(333)], with 89 nM. In the case of `CCNc1ccc(C(=O)NC2(C(=O)NCc3ccc(Nc4ccc(Br)cc4C(F)(F)F)cn3)CC2)cn1` [(334)], the affinity corresponds to a Ki of 20 nM. In the case of `CCCNc1ccc(C(=O)NC2(C(=O)NCc3ccc(Nc4ccc(Br)cc4C(F)(F)F)cn3)CC2)cn1` [(335)], the affinity, expressed as Ki, was 28 nM.

Molecule `O=C(N[C@@]1(C(=O)NCc2ccc(Nc3ccc(Cl)cc3C(F)(F)F)cc2)CCOC1)c1cncs1` [(336)] came in with a Ki of 567 nM.

For `COc1cncc(C(=O)N[C@@]2(C(=O)NCc3ccc(Nc4ccc(Cl)cc4C(F)(F)F)cc3)CCOC2)c1` [(337)], the Ki was 312 nM. To `O=C(NC1(C(=O)NCc2ccc(Nc3ccc(F)cc3C(F)(F)F)cn2)CC1)c1cncc(Cl)c1` [(339)] belongs 49 nM; to `O=C(NC1(C(=O)NCc2ccc(Nc3ccc(F)cc3C(F)(F)F)cn2)CC1)c1cncc(C(F)(F)F)c1` [(340)], 28 nM; to `Cc1ccc(C(=O)NC2(C(=O)NCc3ccc(Nc4ccc(F)cc4C(F)(F)F)cn3)CC2)cn1` [(341)], 69 nM. To `Cc1cc(Nc2ccc(F)cc2C(F)(F)F)cnc1CNC(=O)[C@]1(NC(=O)c2cncc(N)c2)CCOC1` [(342)] belongs 50 nM; to `CNc1ccc(C(=O)NC2(C(=O)NCc3ccc(Nc4ccc(Br)cc4C(F)(F)F)cn3)CC2)cn1` [(343)], 7.2 nM. Then `Cc1ncc(C(=O)NC2(C(=O)NCc3ncc(Nc4ccc(F)cc4C(F)(F)F)cc3C)CC2)cn1` [(344)], with 1.9 nM; and `Cc1ncc(C(=O)N[C@@]2(C(=O)NCc3ncc(Nc4ccc(Cl)cc4C(F)(F)F)cc3C)CCOC2)cn1` [(345)], with 17 nM; and `Cc1cc(Nc2ccc(Cl)cc2C(F)(F)F)cnc1CNC(=O)[C@]1(NC(=O)c2cncc(N)c2)CCOC1` [(346)], with 48 nM. In turn, `CNc1ccc(C(=O)NC2(C(=O)NCc3ccc(Nc4ccc(Cl)cc4C(F)(F)F)cn3)CC2)cn1` [(347)] had a Ki of 12 nM. In turn, `Nc1ccc(C(=O)N[C@@]2(C(=O)NCc3ncc(Nc4ccc(F)cc4C(F)(F)F)cc3F)CCOC2)cn1` [(348)] gave a Ki of 31 nM.
